Test results from PMC9663970, “New triazole-substituted triterpene derivatives exhibiting anti-RSV activity: synthesis, biological evaluation, and molecular modeling” (Beilstein Journal of Organic Chemistry, 2022).
Read-outs that look alike come from different tables or passages of the source.

Experiments:
B16F10 cells = assay: cells; format: cell-based; settings: for IC50: Mus musculus, read-out: IC50 ± SD, concentration toxic to 50% of non-infected B16F10 cells
VERO cells = assay: cells; format: cell-based; settings: for IC50: Chlorocebus sabaeus, 96 h, read-out: IC50 ± SD, concentration toxic to 50% of non-infected VERO cells
HEP2 cells = assay: cells; format: cell-based; settings: for IC50: Homo sapiens, read-out: IC50 ± SD, concentration toxic to 50% of non-infected HEP2 cells
RSV = assay: Anti-RSV activity in RSV-infected A549 cells (MTT and SRB); format: cell-based, RSV A strain (line A2); settings: for Therapeutic index (TI) = IC50(A549)/EC50(A549 + RSV): IC50 in A549; for Therapeutic index (TI) = IC50(B16F10)/EC50(A549 + RSV): IC50 in B16F10; for Therapeutic index (TI) = IC50(HEP2)/EC50(A549 + RSV): IC50 in HEP2; for Therapeutic index (TI) = IC50(VERO)/EC50(A549 + RSV): IC50 in VERO
A549 cells = assay: cells; format: cell-based; settings: for IC50: Homo sapiens, read-out: IC50 ± SD, concentration toxic to 50% of non-infected A549 cells
SARS-CoV [1] = settings: in vitro in Vero cells; read-out: IC50 against SARS-CoV; cited from earlier work
HIV protease = test system: HIV protease; design: method as in PMID 10071849; settings: read-out: IC50 HIV protease inhibition; cited from earlier work
RSV protein F gene = format: cell-based; settings: 12.5 µM, RSV-infected A549 cells, 96 h, compared to control
SARS-CoV [2] = settings: cited from earlier work
[3] = human respiratory syncytial virus, A549, A549+RSV, treated 4 hours after viral infection, 96 h, read-out: EC50 ± SD, concentration that inhibits RSV replication by 50%
[4] = B16-F10, MTT test, 96 h, non-infected B16F10 cells
[5] = MTT test, non-infected VERO cells
[6] = HEp-2, MTT test, 96 h, non-infected HEP2 cells
[7] = human respiratory syncytial virus, A549, read-out: EC50 ± SD, concentration that inhibits RSV replication by 50%, A549+RSV, treated 4 hours after viral infection, 96 h
[8] = MTT test, 96 h, non-infected A549 cells

SMILES	IC50 (B16F10 cells; B16-F10, 96 h)	IC50 (VERO cells; Vero)	IC50 (HEP2 cells; HEp-2, 96 h)	Therapeutic index (TI) = IC50(A549)/EC50(A549 + RSV) (RSV)	Therapeutic index (TI) = IC50(B16F10)/EC50(A549 + RSV) (RSV)	Therapeutic index (TI) = IC50(HEP2)/EC50(A549 + RSV) (RSV)	Therapeutic index (TI) = IC50(VERO)/EC50(A549 + RSV) (RSV)	EC50 (RSV; [3])	IC50 (A549 cells; A549, 96 h)	EC50 (RSV; [7])	further results
C=C(C)[C@@H]1CC[C@]2(C(=O)OCc3cn(-c4cccc([N+](=O)[O-])c4)nn3)CC[C@]3(C)[C@H](CC[C@@H]4[C@@]5(C)CC[C@H](OC(C)=O)C(C)(C)[C@@H]5CC[C@]43C)[C@@H]12 [compound 7]	18.8 ± 0.7 µM	18.9 ± 1.4 µM	23.8 ± 2 µM	142.3	62.7	79.3	63.0	0.314 µM	42.7 ± 0.6 µM	–	EC50 (RSV; A549+RSV, treated 4 hours after viral infection, 96 h, read-out: EC50 ± SD, concentration that inhibits RSV replication by 50%): 0.3 ± 0.1 µM
CC1(C)[C@@H](O[C@H]2O[C@H](C(=O)O)[C@@H](O)[C@H](O)[C@H]2O[C@@H]2O[C@H](C(=O)O)[C@@H](O)[C@H](O)[C@H]2O)CC[C@]2(C)[C@H]3C(=O)C=C4[C@@H]5C[C@@](C)(C(=O)O)CC[C@]5(C)CC[C@@]4(C)[C@]3(C)CC[C@@H]12 [glycyrrhizic acid]	–	–	–	–	–	–	–	–	–	–	IC50 (SARS-CoV [1]): 365 µM
CC(=O)OC1CCC2(C)C(CCC3(C)C2CC=C2C4C(C)C(C)CCC4(C(=O)O)CCC23C)C1(C)C (stereo not drawn) [compound 4]	–	–	–	9.3	0.9	1.2	0.9	–	–	14.3 µM	IC50 (B16F10 cells; [4]): 12.4 ± 0.8 µM; IC50 (VERO cells; [5]): 12.6 ± 1.2 µM; IC50 (HEP2 cells; [6]): 17.2 ± 0.9 µM; EC50 (RSV; read-out: EC50 ± SD, concentration that inhibits RSV replication by 50%, A549+RSV, treated 4 hours after viral infection, 96 h): 14.3 ± 0.6 µM; IC50 (A549 cells; [8]): 133 ± 1.1 µM
C#CCOC(=O)[C@]12CC[C@@H](C(=C)C)[C@@H]1[C@H]1CC[C@@H]3[C@@]4(C)CC[C@H](OC(C)=O)C(C)(C)[C@@H]4CC[C@@]3(C)[C@]1(C)CC2 [compound 5]	25.6 ± 0.5 µM	14.5 ± 0.2 µM	18.4 ± 0.6 µM	148.0	42.7	30.7	24.2	0.6 ± 0.8 µM	88.8 ± 1 µM	–	–
C#CCOC(=O)[C@]12CC[C@@H](C)[C@H](C)[C@H]1C1=CC[C@@H]3[C@@]4(C)CC[C@H](OC(C)=O)C(C)(C)[C@@H]4CC[C@@]3(C)[C@]1(C)CC2 [compound 6]	–	–	–	1.9	0.8	0.6	0.7	36.2 ± 0.9 µM	–	–	IC50 (B16F10 cells; [4]): 29 ± 1.1 µM; IC50 (VERO cells; [5]): 26.1 ± 0.6 µM; IC50 (HEP2 cells; [6]): 20.3 ± 0.4 µM; IC50 (A549 cells; [8]): 67.2 ± 0.5 µM
C[C@H]1[C@H](C)CC[C@]2(C(=O)O)CC[C@]3(C)C(=CC[C@@H]4[C@@]5(C)CC[C@H](O)C(C)(C)[C@@H]5CC[C@]43C)[C@H]12 [compound 2, ursolic acid, reference compound]	16.2 ± 0.8 µM	12.9 ± 0.8 µM	26.9 ± 0.4 µM	1.5	0.9	1.6	0.8	–	26.7 ± 0.9 µM	17.3 ± 0.9 µM	IC50 (HIV protease): 9 µM
CC(=O)OC1CCC2(C)C(CCC3(C)C2CC=C2C4C(C)C(C)CCC4(C(=O)OCc4cn(-c5cccc([N+](=O)[O-])c5)nn4)CCC23C)C1(C)C (stereo not drawn) [compound 8]	9.8 ± 0.6 µM	21.6 ± 0.9 µM	19.9 ± 1.2 µM	–	196.0	398.0	432.0	–	59.2 ± 0.9 µM	0.053 µM	Cytotoxicity (in words) (B16F10 cells; non-infected B16F10 cells): low cytotoxicity; Cytotoxicity (in words) (VERO cells; non-infected VERO cells): low cytotoxicity; Cytotoxicity (in words) (HEP2 cells; non-infected HEP2 cells): low cytotoxicity; Cytotoxicity (in words) (A549 cells; non-infected A549 cells): low cytotoxicity; Reduction of RSV protein F gene expression (RSV protein F gene): approximately 65%
C=C(C)[C@@H]1CC[C@]2(C(=O)O)CC[C@]3(C)[C@H](CC[C@@H]4[C@@]5(C)CC[C@H](O)C(C)(C)[C@@H]5CC[C@]43C)[C@@H]12 [compound 1, betulinic acid, reference compound]	22.7 ± 0.8 µM	14.2 ± 0.2 µM	28 ± 0.3 µM	3.4	4.3	5.3	2.7	–	17.8 ± 0.6 µM	5.3 ± 0.7 µM	IC50 (HIV protease): 8 µM; SI anti-SARS-CoV activity (SARS-CoV [2]): > 10; EC50 (SARS-CoV [2]; read-out: EC50 anti-SARS-CoV activity): 10 µM
C=C(C)[C@@H]1CC[C@]2(C(=O)O)CC[C@]3(C)[C@H](CC[C@@H]4[C@@]5(C)CC[C@H](OC(C)=O)C(C)(C)[C@@H]5CC[C@]43C)[C@@H]12 [compound 3]	10.2 ± 1.1 µM	13.4 ± 2.1 µM	11.5 ± 1.5 µM	1.2	0.2	0.3	0.3	–	53 ± 0.9 µM	44.4 ± 0.5 µM	–
NC(=O)c1ncn([C@@H]2O[C@H](CO)[C@@H](O)[C@H]2O)n1 [RBV, ribavirin, reference compound]	–	–	–	–	–	–	–	4.9 ± 1.4 µM	–	–	–
